Entries after “also recorded” stand apart in the source; their conditions may differ. Read-outs that look alike come from different tables or passages of the source.
Assays:
Format in all cases: in vivo, human
[1] = Ivosidenib plasma PK after multiple oral doses (dose escalation); settings: for Cmax / AUC(0-t) / AUC / Tmax: human, plasma, oral; for Cmax / AUC(0-t) / AUC: geometric mean; for AUC(0-t): read-out: AUC0-10hr; for AUC: read-out: AUC0-tau
Experimental: In the dose escalation portion, patients with 1) glioma and 2) non-glioma solid tumors were enrolled into sequential cohorts using a standard 3 + 3 design. […] At least 3 patients in each cohort also received a single dose 3 days prior to the start of multiple dosing (i.e., day −3).
These samples were optional for any further patients enrolled in these cohorts. Further blood samples were collected from all patients up to 10 h postdose on cycle 1, day 15 and cycle 2, day 1. A subset of samples was also used for evaluation of plasma 4β-hydroxycholesterol (4β-OHC) and 4β-OHC:cholesterol ratios. Blood samples for assessment of 2-HG only were also collected at screening.
(§1) Plasma ivosidenib was measured using two validated liquid chromatography-tandem mass spectrometry (LC-MS/MS) methods. The lower limit of quantification (LLOQ) was 1.00 ng/mL (low-range assay) or 50.0 ng/mL (high-range assay). […] Plasma 2-HG concentrations were measured using a qualified LC-MS/MS method with an LLOQ of 30.0 ng/mL. Concentrations of 2-HG in tumor biopsy samples were quantified using qualified LC-MS/MS methods with an LLOQ of 7.5 μg/g for brain tumor homogenate, 100 ng/g for liver tumor homogenate (low-range assay), and 30 μg/g for liver tumor homogenate (high-range assay). Plasma 4β-OHC and cholesterol were measured using a validated LC-MS/MS method. The LLOQ was 5 ng/mL for 4β-OHC and 25 μg/mL for cholesterol in human plasma.
(§2) PK parameters included area under the plasma concentration-time curve (AUC), maximum plasma concentration (Cmax), time to maximum plasma concentration (Tmax), terminal elimination half-life (t1/2), and apparent oral clearance at steady state (CLss/F). Accumulation ratio (Racc), based on Cmax and AUC, was also assessed during the dose escalation portion. PD (2-HG) parameters included baseline-effect value, area under the effect concentration-time curve (AUEC0-10h for the dose escalation portion, or AUEC0-8h for the dose escalation and expansion portions), percent change from baseline in AUEC (%BAUEC0-10h for the escalation portion, or %BAUEC0-8h for the dose escalation and expansion portions), average plasma concentration (Cavg), and percent inhibition for Cavg (%BCavg). For the dose escalation portion, the time-matched ratios of 4β-OHC to cholesterol were calculated.

[2] = Ivosidenib plasma PK after single and multiple 500 mg QD doses (dose expansion); settings: for Cmax / AUC(0-t) / Tmax: human, plasma, oral, 500 mg
Experimental: Additional predose samples were taken on cycle 1, day 8; cycle 1, day 15; cycle 3, day 1; and end of treatment.
as §1, §2

[3] = Effect of intrinsic and extrinsic factors on ivosidenib CLss/F; settings: 500 mg QD, cycle 2 day 1
Experimental: Continuous factors assessed included age, body weight, body mass index, baseline creatinine clearance (CLcr), baseline estimated glomerular filtration rate (eGFR), and markers of hepatic function (alanine aminotransferase [ALT], alkaline phosphatase [ALP], aspartate aminotransferase [AST], bilirubin, total protein, and albumin). CLcr was calculated using the Cockcroft and Gault equation and eGFR was calculated using the Modification of Diet in Renal Disease – National Kidney Disease Education Program equations [15]. Categorical factors assessed included sex, ethnicity, race, disease status, concomitant CYP3A4 inhibitor and inducer status, baseline hepatic and renal function category, and tumor type. Renal function was categorized as normal (CLcr ≥ 90 mL/min or eGFR ≥90 mL/min/1.73 m^2), mild impairment (CLcr ≥ 60–89 mL/min or eGFR ≥60–89 mL/min/1.73 m^2), moderate impairment (CLcr ≥ 30–59 mL/min or eGFR ≥30–59 mL/min/1.73 m^2), and severe impairment (CLcr ≥ 15–29 mL/min or eGFR ≥15–29 mL/min/1.73 m^2). Hepatic function category was based on National Cancer Institute (NCI) organ dysfunction working group (ODWG) criteria for hepatic dysfunction (0 = normal, 1 = mild, 2 = moderate, 3 = severe, 4 = liver transplant).

[4] = 100 mg, non-glioma solid tumors, 100 mg BID, cycle 2 day 1
[5] = 300 mg, glioma, 300 mg QD, cycle 2 day 1
[6] = 300 mg, non-glioma solid tumors, 300 mg QD, cycle 2 day 1
[7] = 400 mg, non-glioma solid tumors, 400 mg QD, cycle 2 day 1
[8] = 500 mg, glioma, 500 mg QD, cycle 2 day 1
[9] = 500 mg, non-glioma solid tumors, 500 mg QD, cycle 2 day 1
[10] = 600 mg, glioma, 600 mg QD, cycle 2 day 1
[11] = 800 mg, non-glioma solid tumors, 800 mg QD, cycle 2 day 1
[12] = 900 mg, glioma, 900 mg QD, cycle 2 day 1
[13] = 1200 mg, non-glioma solid tumors, 1,200 mg QD, cycle 2 day 1

With `N#Cc1ccnc(N2C(=O)CC[C@H]2C(=O)N(c2cncc(F)c2)[C@H](C(=O)NC2CC(F)(F)C2)c2ccccc2Cl)c1` [ivosidenib] the “accumulation at steady state” value ([1]; day 15) was “approximately 1.5 fold”, the Cmax [1, 4] was 3560 ng/mL and the AUC(0-t) [1, 4] was 28600 ng·h/mL. For the same compound, the AUC [1, 4] was 33600 ng·h/mL, the Tmax ([1]; 100 mg, non-glioma solid tumors, 100 mg BID, cycle 2 day 1, median, read-out: Tmax) was 2.5 h and the Cmax [1, 5] was 3290 ng/mL. It also gave an AUC(0-t) [1, 5] of 23700 ng·h/mL, an AUC [1, 5] of 50800 ng·h/mL and a Tmax ([1]; 300 mg, glioma, 300 mg QD, cycle 2 day 1, median, read-out: Tmax) of 2.54 h. For the same compound, the Cmax [1, 6] was 3160 ng/mL, the AUC(0-t) [1, 6] was 23400 ng·h/mL and the AUC [1, 6] was 53200 ng·h/mL. For the same compound, the Tmax ([1]; 300 mg, non-glioma solid tumors, 300 mg QD, cycle 2 day 1, median, read-out: Tmax) was 2.05 h, the Cmax [1, 7] was 6800 ng/mL and the AUC(0-t) [1, 7] was 51600 ng·h/mL. It also gave a Tmax ([1]; 400 mg, non-glioma solid tumors, 400 mg QD, cycle 2 day 1, median, read-out: Tmax) of 3.03 h, a Cmax [1, 8] of 2900 ng/mL and an AUC(0-t) [1, 8] of 20500 ng·h/mL. For the same compound, the AUC [1, 8] was 44400 ng·h/mL, the Tmax ([1]; 500 mg, glioma, 500 mg QD, cycle 2 day 1, median, read-out: Tmax) was 2 h and the Cmax [1, 9] was 4420 ng/mL. For the same compound, the AUC(0-t) [1, 9] was 33900 ng·h/mL, the AUC [1, 9] was 72800 ng·h/mL and the Tmax ([1]; 500 mg, non-glioma solid tumors, 500 mg QD, cycle 2 day 1, median, read-out: Tmax) was 2.96 h. It also gave a Cmax [1, 10] of 3800 ng/mL, an AUC(0-t) [1, 10] of 29100 ng·h/mL and an AUC [1, 10] of 59800 ng·h/mL. It also gave a Tmax ([1]; 600 mg, glioma, 600 mg QD, cycle 2 day 1, median, read-out: Tmax) of 2 h, a Cmax [1, 11] of 6050 ng/mL and an AUC(0-t) [1, 11] of 44500 ng·h/mL. The Tmax ([1]; 800 mg, non-glioma solid tumors, 800 mg QD, cycle 2 day 1, median, read-out: Tmax) was 2 h, the Cmax [1, 12] was 4100 ng/mL and the AUC(0-t) [1, 12] was 31100 ng·h/mL. The AUC [1, 12] was 64500 ng·h/mL, the Tmax ([1]; 900 mg, glioma, 900 mg QD, cycle 2 day 1, median, read-out: Tmax) was 2.52 h and the Cmax [1, 13] was 7580 ng/mL. The AUC(0-t) [1, 13] was 57700 ng·h/mL, the AUC [1, 13] was 120000 ng·h/mL and the Tmax ([1]; 1200 mg, non-glioma solid tumors, 1,200 mg QD, cycle 2 day 1, median, read-out: Tmax) was 2.92 h. For the same compound, the Tmax ([1]; after multiple doses, glioma and non-glioma solid tumors, read-out: median Tmax) was 2 to 3 h, the “steady state reached by” value ([1]; multiple dosing, cycle 1) was ≤ 15 days and the “steady state for ivosidenib plasma exposure and plasma 2-HG inhibition reached within” value ([1]; of cycle 1) was ≤ 14 days. For the same compound, the “Cmax at steady state lower in glioma than in cholangiocarcinoma/chondrosarcoma” value [2] was ~29%, the Cmax ([2]; expansion cholangiocarcinoma, cycle 1 day 1, geometric mean (geometric CV%)) was 3660 ng/mL and the AUC(0-t) ([2]; expansion cholangiocarcinoma, cycle 1 day 1, geometric mean (geometric CV%), read-out: AUC0-8hr) was 19700 ng·h/mL. For the same compound, the Tmax ([2]; expansion cholangiocarcinoma, cycle 1 day 1, median (minimum; maximum)) was 3.08 h, the Cmax ([2]; expansion cholangiocarcinoma, cycle 2 day 1, geometric mean (geometric CV%)) was 4580 ng/mL and the AUC(0-t) ([2]; expansion cholangiocarcinoma, cycle 2 day 1, geometric mean (geometric CV%), read-out: AUC0-8hr) was 29000 ng·h/mL. For the same compound, the AUC(0-t) ([2]; expansion cholangiocarcinoma, cycle 2 day 1, geometric mean (geometric CV%), read-out: AUC0-24hr) was 75600 ng·h/mL, the Tmax ([2]; expansion cholangiocarcinoma, cycle 2 day 1, median (minimum; maximum)) was 2.03 h and the Cmax ([2]; expansion chondrosarcoma, cycle 1 day 1, geometric mean (geometric CV%)) was 4260 ng/mL. For the same compound, the AUC(0-t) ([2]; expansion chondrosarcoma, cycle 1 day 1, geometric mean (geometric CV%), read-out: AUC0-8hr) was 22900 ng·h/mL, the Tmax ([2]; expansion chondrosarcoma, cycle 1 day 1, median (minimum; maximum)) was 2.98 h and the Cmax ([2]; expansion chondrosarcoma, cycle 2 day 1, geometric mean (geometric CV%)) was 5300 ng/mL. The AUC(0-t) ([2]; expansion chondrosarcoma, cycle 2 day 1, geometric mean (geometric CV%), read-out: AUC0-8hr) was 36200 ng·h/mL, the AUC(0-t) ([2]; expansion chondrosarcoma, cycle 2 day 1, geometric mean (geometric CV%), read-out: AUC0-24hr) was 88700 ng·h/mL and the Tmax ([2]; expansion chondrosarcoma, cycle 2 day 1, median (minimum; maximum)) was 2.08 h. The Cmax ([2]; expansion enhancing glioma, cycle 1 day 1, geometric mean (geometric CV%)) was 3140 ng/mL, the AUC(0-t) ([2]; expansion enhancing glioma, cycle 1 day 1, geometric mean (geometric CV%), read-out: AUC0-8hr) was 16000 ng·h/mL and the Tmax ([2]; expansion enhancing glioma, cycle 1 day 1, median (minimum; maximum)) was 3.01 h. For the same compound, the Cmax ([2]; expansion enhancing glioma, cycle 2 day 1, geometric mean (geometric CV%)) was 3800 ng/mL, the AUC(0-t) ([2]; expansion enhancing glioma, cycle 2 day 1, geometric mean (geometric CV%), read-out: AUC0-8hr) was 24400 ng·h/mL and the AUC(0-t) ([2]; expansion enhancing glioma, cycle 2 day 1, geometric mean (geometric CV%), read-out: AUC0-24hr) was 62600 ng·h/mL. The Tmax ([2]; expansion enhancing glioma, cycle 2 day 1, median (minimum; maximum)) was 2.03 h, the Cmax ([2]; expansion non-enhancing glioma, cycle 1 day 1, geometric mean (geometric CV%)) was 2790 ng/mL and the AUC(0-t) ([2]; expansion non-enhancing glioma, cycle 1 day 1, geometric mean (geometric CV%), read-out: AUC0-8hr) was 14900 ng·h/mL. It also gave a Tmax ([2]; expansion non-enhancing glioma, cycle 1 day 1, median (minimum; maximum)) of 2.58 h, a Cmax ([2]; expansion non-enhancing glioma, cycle 2 day 1, geometric mean (geometric CV%)) of 3540 ng/mL and an AUC(0-t) ([2]; expansion non-enhancing glioma, cycle 2 day 1, geometric mean (geometric CV%), read-out: AUC0-8hr) of 22200 ng·h/mL. The AUC(0-t) ([2]; expansion non-enhancing glioma, cycle 2 day 1, geometric mean (geometric CV%), read-out: AUC0-24hr) was 55700 ng·h/mL, the Tmax ([2]; expansion non-enhancing glioma, cycle 2 day 1, median (minimum; maximum)) was 3.05 h and the Cmax ([2]; expansion other solid tumors, cycle 1 day 1, geometric mean (geometric CV%)) was 2290 ng/mL. It also gave an AUC(0-t) ([2]; expansion other solid tumors, cycle 1 day 1, geometric mean (geometric CV%), read-out: AUC0-8hr) of 13800 ng·h/mL, a Tmax ([2]; expansion other solid tumors, cycle 1 day 1, median (minimum; maximum)) of 2.55 h and a Cmax ([2]; expansion other solid tumors, cycle 2 day 1, geometric mean (geometric CV%)) of 4130 ng/mL. For the same compound, the AUC(0-t) ([2]; expansion other solid tumors, cycle 2 day 1, geometric mean (geometric CV%), read-out: AUC0-8hr) was 25100 ng·h/mL, the AUC(0-t) ([2]; expansion other solid tumors, cycle 2 day 1, geometric mean (geometric CV%), read-out: AUC0-24hr) was 62200 ng·h/mL and the Tmax ([2]; expansion other solid tumors, cycle 2 day 1, median (minimum; maximum)) was 1.98 h. For the same compound, the Cmax ([2]; expansion overall, cycle 1 day 1, geometric mean (geometric CV%)) was 3310 ng/mL, the AUC(0-t) ([2]; expansion overall, cycle 1 day 1, geometric mean (geometric CV%), read-out: AUC0-8hr) was 17600 ng·h/mL and the Tmax ([2]; expansion overall, cycle 1 day 1, median (minimum; maximum)) was 3 h. It also gave a Cmax ([2]; expansion overall, cycle 2 day 1, geometric mean (geometric CV%)) of 4210 ng/mL, an AUC(0-t) ([2]; expansion overall, cycle 2 day 1, geometric mean (geometric CV%), read-out: AUC0-8hr) of 26600 ng·h/mL and an AUC(0-t) ([2]; expansion overall, cycle 2 day 1, geometric mean (geometric CV%), read-out: AUC0-24hr) of 68500 ng·h/mL. The Tmax ([2]; expansion overall, cycle 2 day 1, median (minimum; maximum)) was 2.14 h, the “effect of concomitant weak CYP3A4 inhibitors or inducers on CLss/F” value [3] was “no apparent effect; also recorded: did not appear to affect” and the “effect of mild or moderate renal impairment or mild hepatic impairment on CLss/F” value [3] was “no apparent effect”.

Reference: paper PMC7066280 (Investigational New Drugs, 2019)
